Measurements reported in article PMC11356900, “Synthesis, Structural Properties and Biological Activities of Novel Hydrazones of 2-, 3-, 4-Iodobenzoic Acid” (Molecules, 2024).
≈ marks a conversion by molar mass, not a printed value. Read-outs that look alike come from different tables or passages of the source.

Key:
[1] = tested on: Staphylococcus aureus ATCC 43300; experiment: Broth microdilution MIC/MBC; conditions: ATCC43300 / MRSA
[2] = tested on: Micrococcus luteus ATCC 10240; experiment: Broth microdilution MIC/MBC; conditions: Micrococcus luteus, ATCC10240
[3] = tested on: Staphylococcus epidermidis ATCC 12228; experiment: Broth microdilution MIC/MBC; conditions: ATCC12228
[4] = tested on: Staphylococcus aureus ATCC 29213; experiment: Broth microdilution MIC/MBC; conditions: ATCC29213
[5] = tested on: Bacillus cereus ATCC 10876; experiment: Broth microdilution MIC/MBC; conditions: Bacillus cereus, ATCC10876
[6] = tested on: Staphylococcus aureus ATCC 25923; experiment: Broth microdilution MIC/MBC; conditions: Staphylococcus aureus, ATCC25923
[7] = tested on: Candida glabrata ATCC 90030; experiment: Broth microdilution MIC/MFC; assay type: cell-based
Description: (§1) Procedures of in vitro antimicrobial assays are described in Supplementary Materials.
(§2) 2. Microbiology – in vitro antimicrobial activity assays […]
(§3) using the broth microdilution method according to the European Committee on Antimicrobial Susceptibility Testing (EUCAST) and Clinical and Laboratory Standards Institute guidelines against a panel of reference and clinical or saprophytic strains of mi croorganisms, including the Gram-positive bacteria: Staphylococcus aureus ATCC 43300 (Methi-cillin Resistant S. aureus – MRSA), Staphylococcus aureus ATCC 29213 (Methicillin Susceptible S. aureus – MSSA), Staph-ylococcus epidermidis ATCC 12228, Micrococcus luteus ATCC 10240, Bacillus subtilis ATCC 6633 and Bacillus cereus ATCC 10876), Gram-negative bacteria: Bordetella bronchiseptica ATCC 4617, Escherichia coli ATCC 25922, Klebsiella pneumoniae ATCC 13883, Proteus mirabilis ATCC 12453, Salmonella typhimurium ATCC 14028 and Pseudomonas aeruginosa ATCC 9027, and fungi belonging to yeasts: Candida albicans ATCC 10231, Candida albicans ATCC 2091, Candida parapsilosis ATCC 22019, Candida glabrata ATCC 90030 and Candida krusei ATCC 14243. The microorganisms belonging to ATCC originated from American Type Culture Collection, routinely used for the evaluation of antimicrobials. All the used microbial cultures were first subcultured on nutrient agar or Sabouraud agar at 35°C for 18-24 h or 30°C for 24-48 h for bacteria […]
(§4) The surface of Mueller-Hinton agar (for bacteria) and RPMI 1640 with MOPS (for fungi) were inoculated with the suspensions of bacterial or fungal species. Microbial suspensions were prepared in sterile saline with an optical density of McFarland standard scale 0.5. The samples containing the compounds were dissolved in dimethyl sulfoxide (DMSO).
(§5) Furthermore, the bacterial and fungal suspensions put onto the Petri dishes with solid media containing 2 mg/mL of the tested compounds followed were incubated at 37°C for 24h and 30°C for 48h for bacteria and fungi, respectively.
(§6) The inhibition of microbial growth was estimated comparing with a control culture prepared without any tested sam- […]
(§7) antifungal compounds, respectively.
(§8) Subsequently, MIC (Minimal Inhibitory Concentration) of the compounds was examined by the microdilution broth method, using their two-fold dilutions in Mueller-Hinton broth (for bacteria) and RPMI 1640 broth with MOPS (for fungi) prepared in the 96-well polystyrene plates. The final concentrations of the compounds ranged from 1000 to 0.488 µg/mL. Microbial suspensions were prepared in 0.85% NaCl with an optical density of 0.5 McFarland standard. Next each bacterial or fungal suspension was added per each well containing broth and various concentrations of the exam-ined compounds. After incubation, the MIC was assessed spectrophotometrically as the lowest concentration of the […]
(§9) Appropriate DMSO, growth and sterile controls were carried out. The medium with no tested substances was used as a control The MBC (Minimal Bactericidal Concentration) and MFC (Minimal Fungicidal Concentration) are defined as the lowest concentration of the compounds that is required to kill a particular bacterial or fungal species. The MBC/MFC was determined by removing the culture used for the MIC determination from each well and spotted onto the appro-priate agar medium. The plates were incubated under appropriate conditions for bacteria and fungi. The lowest com-pounds concentration with no visible growth observed was assessed as a bactericidal/fungicidal concentration. All the experiments were repeated three times and the representative data are presented.
(§10) 1. European Committee for Antimicrobial Susceptibility Testing (EUCAST) Determination of minimum inhibitory con-centrations (MICs) of antibacterial agents by broth dilution. EUCAST discussion document E. Dis 5.1. Clin. Microbiol.
(§11) 2. Clinical and Laboratory Standards Institute. Reference method for broth dilution antifungal susceptibility testing of […]

[8] = tested on: Candida albicans ATCC 2091; experiment: Broth microdilution MIC/MFC; assay type: cell-based
Description: as §1, §2, §3, §4, §5, §6, §7, §8, §9, §10, §11

[9] = tested on: Candida parapsilosis ATCC 22019; experiment: Broth microdilution MIC/MFC; assay type: cell-based
Description: as §1, §2, §3, §4, §5, §6, §7, §8, §9, §10, §11

[10] = tested on: Candida albicans ATCC 10231; experiment: Broth microdilution MIC/MFC; assay type: cell-based
Description: as §1, §2, §3, §4, §5, §6, §7, §8, §9, §10, §11

[11] = tested on: Candida krusei ATCC 14243; experiment: Broth microdilution MIC/MFC; assay type: cell-based
Description: as §1, §2, §3, §4, §5, §6, §7, §8, §9, §10, §11

[12] = tested on: Candida spp.; experiment: Broth microdilution, summary over reference yeasts; assay type: cell-based; conditions: for antifungal activity in words: reference yeasts from Candida spp.
Description: as §1, §2, §3, §4, §5, §6, §7, §8, §9, §10, §11

[13] = tested on: Bacillus subtilis ATCC 6633; experiment: Broth microdilution MIC/MBC; conditions: ATCC6633
[14] = tested on: Gram-positive bacteria; experiment: Broth microdilution, summary over reference Gram-positive bacteria; assay type: cell-based; conditions: for antibacterial activity in words: reference Gram-positive bacteria / studied bacteria
Description: as §1, §2, §3, §4, §5, §6, §7, §8, §9, §10, §11

[15] = Nakaseomyces glabratus, ATCC90030, read-out: MFC
[16] = Nakaseomyces glabratus, ATCC90030, read-out: MIC
[17] = Lodderomyces parapsilosis, ATCC22019, read-out: MIC
[18] = Pichia kudriavzevii, ATCC14243, read-out: MIC
[19] = range over the reference Candida spp. strains

Row | SMILES | MIC [1] | MIC [2] | MIC [3] | MIC [4] | MIC [5] | MIC [6] | MFC [7, 15] | MIC [7, 16] | MIC ([8]; ATCC2091, read-out: MIC) | MIC [9, 17] | MFC ([10]; ATCC10231, read-out: MFC) | MIC ([10]; ATCC10231, read-out: MIC) | MIC [11, 18] | antifungal activity in words [12] | melting point | MIC [13] | antibacterial activity in words [14] | further results
1 | O=C(N/N=C/c1cc(O)ccc1O)c1ccccc1I [Compound 11, N-[(2,5-dihydroxyphenyl)methylidene]-2-iodobenzohydrazide] | > 1000 µg/mL | > 1000 µg/mL | > 1000 µg/mL | > 1000 µg/mL | > 1000 µg/mL | > 1000 µg/mL | > 1000 µg/mL | 1000 µg/mL (≈ 2620 µM) | > 1000 µg/mL | > 1000 µg/mL | > 1000 µg/mL | 1000 µg/mL (≈ 2620 µM) | > 1000 µg/mL | mild activity or were inactive | 211 to 214 °C | > 1000 µg/mL | no antimicrobial effect | 
2 | O=C(N/N=C/c1cc(Cl)cc(I)c1O)c1ccccc1I [Compound 12, N-[(5-chloro-2-hydroxy-3-iodophenyl)methylidene]-2-iodobenzohydrazide] | 1000 µg/mL (≈ 1900 µM) | 31.2 µg/mL (≈ 59.4 µM) | 250 µg/mL (≈ 475 µM) | 1000 µg/mL (≈ 1900 µM) | 500 µg/mL (≈ 950 µM) | 125 µg/mL (≈ 237 µM) | > 1000 µg/mL | 250 µg/mL (≈ 475 µM) | 500 µg/mL (≈ 950 µM) | 1000 µg/mL (≈ 1900 µM) | > 1000 µg/mL | 500 µg/mL (≈ 950 µM) | 500 µg/mL (≈ 950 µM) | moderate or mild | 215 to 220 °C | 1000 µg/mL (≈ 1900 µM) |  | MBC [1]: > 1000 µg/mL; MBC [2]: 250 µg/mL (≈ 475 µM); MBC [3]: 500 µg/mL (≈ 950 µM); MBC [4]: > 1000 µg/mL; MBC [5]: > 1000 µg/mL; MBC [6]: > 1000 µg/mL; MFC ([8]; ATCC2091, read-out: MFC): > 1000 µg/mL; MFC ([9]; Lodderomyces parapsilosis, ATCC22019, read-out: MFC): > 1000 µg/mL; MFC ([11]; Pichia kudriavzevii, ATCC14243, read-out: MFC): > 1000 µg/mL; MFC [12, 19]: ≥ 1000 µg/mL; MIC [12, 19]: 250 to 1000 µg/mL (≈ 475 to 1900 µM); MBC [13]: > 1000 µg/mL; MIC ([14]; range over the reference Gram-positive bacteria, read-out: MIC): 31.2 to 1000 µg/mL (≈ 59.4 to 1900 µM)
3 | O=C(N/N=C/c1ccccc1O)c1cccc(I)c1 [Compound 16, N-[(2-hydroxyphenyl)methylidene]-3-iodobenzohydrazide] |  |  |  |  |  |  |  |  |  |  |  |  |  |  | 201 to 203 °C |  | no activity | 
4 | O=C(N/N=C/c1cccc([N+](=O)[O-])c1O)c1ccc(I)cc1 [Compound 22, N-[(2-hydroxy-3-nitrophenyl)methylidene]-4-iodobenzohydrazide] |  |  |  |  |  |  |  |  |  |  |  |  |  | no antifungal activity | 198 to 202 °C |  | No antimicrobial effect | 
5 | C[C@@H]1[C@H](O)[C@@H](C)/C=C/C=C/CC/C=C/C=C/C=C/C=C/C(O[C@H]2O[C@H](C)[C@@H](O)[C@H](N)[C@@H]2O)CC2O[C@](O)(CC(O)C(O)CCC(O)CC(O)CC(O)CC(=O)O[C@H]1C)CC(O)C2C(=O)O (stereo partly drawn) [NY*, nystatin, reference compound] |  |  |  |  |  |  |  |  |  |  |  |  |  |  |  |  |  | MFC [7]: 0.48 µg/mL (≈ 0.518 µM); MFC/MIC [7]: 2; MIC [7]: 0.24 µg/mL (≈ 0.259 µM); MFC [8]: 0.24 µg/mL (≈ 0.259 µM); MFC/MIC [8]: 1; MIC [8]: 0.24 µg/mL (≈ 0.259 µM); MFC [9]: 0.48 µg/mL (≈ 0.518 µM); MFC/MIC [9]: 2; MIC [9]: 0.24 µg/mL (≈ 0.259 µM); MFC [10]: 0.48 µg/mL (≈ 0.518 µM); MFC/MIC [10]: 1; MIC [10]: 0.48 µg/mL (≈ 0.518 µM); MFC [11]: 0.24 µg/mL (≈ 0.259 µM); MFC/MIC [11]: 1; MIC [11]: 0.24 µg/mL (≈ 0.259 µM)
